Results on 14 molecules are retold here after US20260356830A1, “COMPOUNDS FOR MODULATING RET PROTEIN” (Bristol-Myers Squibb Company, priority 2022, published 2026).

Bounds are passed on as bounds.

In the test the target is T1, CCDC6-RET (Homo sapiens, UniProt P07949+Q16204+Q96SW2).
T1 construct: CCDC6 (natural N-terminal fusion partner, UniProt Q16204); endogenous in cells; host or cells: TPC-1 (parental, papillary thyroid carcinoma)
As to the kind of experiment: Cellular RET degradation, AlphaLISA, TPC-1 cell line. Format: cell-based. Particulars: for Dmax: TPC1, human, 24 h, read-out: Cell Density TPC-1/CCDC6-RET Ymax %; for DC50: read-out: Cell Density TPC-1/CCDC6-RET DC50, half-maximal degradation concentration, TPC-1 (CCDC6-RET), 24 hrs. As for the experimental part:
Cellular RET degradation compound potency was determined using the bead-based luminescent amplification assay-AlphaLISA Surefire Ultra Detection Kit (Perkin-Elmer). The CCDC6-RET fusion expressing papillary thyroid carcinoma (TPC-1) cell line was selected for screening of potential degraders: Parental (TPC-1/CCDC6-RET). Cells were plated in 384 well culture plates (Greiner Bio-One) at 10,000 cells/well in 50 ul/well DMEM (Fisher Scientific) with 2% FBS serum (Gibco). […] Low normalization wells were media only and high normalization wells were cells treated with DMSO only. Treated cell plates were placed in an incubator at 37 °C and 5% CO2 for 24 hrs. At 24 hrs, cell media was removed by a FELIX automated liquid hander (Analytik Jena) and 25 ul of cell lysis buffer (provided in AlphaLisa kit) was added to each well. […] cell lysate were transferred into a 384-well microplate (Perkin Elmer) before addition of 2.5 ul AlphaLISA Acceptor Bead mix. The plates were sealed and kept at room temperature for 1 hr before addition of donor bead mixture. Donor bead addition was performed in the dark and incubated for >1 hr before AlphaLISA luminescence was measured on an Envision plate reader with an Alphascreen aperture at RT (excitation 680 nm, emission 615 nm). RET protein abundance (and therefore degradation) directly corresponds to luminescence intensity.
Intensities were normalized relative to the average values from 16 wells containing media alone (blank-low) and 16 wells containing cells +DMSO (high). % Degradation for each well was determined using the standard equation, where
DC50 (IC50) values for each compound tested are calculated by analyzing plots of % degradation versus compound concentration, and fitting to the standard 4-parameter logistic curve where,
DC50 values are calculated according to the relationship,
Compound replicates were performed in independent assays. Maximum degradation (YMax) was defined as the maximal % degradation value from the 4-parameter logistic equation, as previously described.

T1 sequence (Q16204+P07949 fused): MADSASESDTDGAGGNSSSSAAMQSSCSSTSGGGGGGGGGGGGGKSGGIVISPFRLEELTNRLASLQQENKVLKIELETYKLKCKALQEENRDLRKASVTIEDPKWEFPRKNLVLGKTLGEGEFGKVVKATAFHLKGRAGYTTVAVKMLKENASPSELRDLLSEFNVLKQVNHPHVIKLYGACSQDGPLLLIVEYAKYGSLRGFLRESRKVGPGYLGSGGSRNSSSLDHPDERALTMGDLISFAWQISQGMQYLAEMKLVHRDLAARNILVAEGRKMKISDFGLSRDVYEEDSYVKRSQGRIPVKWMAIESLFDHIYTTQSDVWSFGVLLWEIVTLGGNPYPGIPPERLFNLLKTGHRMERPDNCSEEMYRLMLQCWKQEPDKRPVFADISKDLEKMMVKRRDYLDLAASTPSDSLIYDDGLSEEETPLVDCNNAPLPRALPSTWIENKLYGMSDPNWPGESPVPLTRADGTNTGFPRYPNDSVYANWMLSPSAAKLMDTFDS
T1 sequence (Q96SW2 whole entry, the tested form may be a part): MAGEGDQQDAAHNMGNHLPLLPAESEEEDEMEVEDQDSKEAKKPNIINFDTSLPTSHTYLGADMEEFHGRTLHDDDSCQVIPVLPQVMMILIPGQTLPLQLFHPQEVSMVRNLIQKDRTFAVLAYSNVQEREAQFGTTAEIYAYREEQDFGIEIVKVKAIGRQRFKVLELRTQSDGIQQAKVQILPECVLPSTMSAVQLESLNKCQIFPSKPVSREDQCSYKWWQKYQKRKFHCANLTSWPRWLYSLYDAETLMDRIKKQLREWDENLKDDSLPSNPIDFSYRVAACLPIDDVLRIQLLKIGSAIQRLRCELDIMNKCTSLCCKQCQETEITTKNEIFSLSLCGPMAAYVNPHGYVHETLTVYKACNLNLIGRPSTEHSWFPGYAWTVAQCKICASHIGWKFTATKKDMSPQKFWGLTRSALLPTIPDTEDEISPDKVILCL
T1 sequence (Q16531 whole entry partner, the tested form may be a part): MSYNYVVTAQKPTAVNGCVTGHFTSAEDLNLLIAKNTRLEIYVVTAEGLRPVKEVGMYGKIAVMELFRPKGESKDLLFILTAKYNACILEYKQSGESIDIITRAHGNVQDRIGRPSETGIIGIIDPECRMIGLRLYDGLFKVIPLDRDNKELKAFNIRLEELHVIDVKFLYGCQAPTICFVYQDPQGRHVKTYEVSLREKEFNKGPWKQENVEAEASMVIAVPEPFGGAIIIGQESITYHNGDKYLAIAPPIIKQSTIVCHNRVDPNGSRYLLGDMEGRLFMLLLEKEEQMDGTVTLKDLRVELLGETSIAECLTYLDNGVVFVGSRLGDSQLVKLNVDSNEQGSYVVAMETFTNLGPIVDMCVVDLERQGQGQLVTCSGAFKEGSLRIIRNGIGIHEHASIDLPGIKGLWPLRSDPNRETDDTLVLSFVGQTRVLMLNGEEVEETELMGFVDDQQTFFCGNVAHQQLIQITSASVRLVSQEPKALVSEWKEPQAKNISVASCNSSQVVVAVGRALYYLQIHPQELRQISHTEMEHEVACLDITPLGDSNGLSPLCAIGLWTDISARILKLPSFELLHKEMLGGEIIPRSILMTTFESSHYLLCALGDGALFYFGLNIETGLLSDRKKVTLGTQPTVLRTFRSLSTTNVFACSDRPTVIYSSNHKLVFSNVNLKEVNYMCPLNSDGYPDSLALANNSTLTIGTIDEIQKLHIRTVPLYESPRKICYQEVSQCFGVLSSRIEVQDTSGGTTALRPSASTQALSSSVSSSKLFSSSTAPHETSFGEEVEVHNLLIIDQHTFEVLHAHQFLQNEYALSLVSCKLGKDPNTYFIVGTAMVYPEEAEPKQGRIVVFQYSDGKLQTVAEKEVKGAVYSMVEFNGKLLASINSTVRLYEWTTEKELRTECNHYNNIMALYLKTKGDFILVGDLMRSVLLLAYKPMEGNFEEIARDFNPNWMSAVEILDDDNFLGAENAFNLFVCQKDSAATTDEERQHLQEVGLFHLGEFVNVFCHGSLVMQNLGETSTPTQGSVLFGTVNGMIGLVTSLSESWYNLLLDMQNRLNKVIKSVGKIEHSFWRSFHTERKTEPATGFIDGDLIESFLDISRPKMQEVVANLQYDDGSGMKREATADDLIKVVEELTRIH

For `CCOc1cc(-c2ccc(N3CCC(CN4CCN(C(=O)CCCCCCN5CCN(c6ccc7c(c6)CN(C6CCC(=O)NC6=O)C7=O)CC5)CC4)(NC(=O)CC(C)C)CC3)nc2)c2c(C#N)cnn2c1` (stereo not drawn) [Example 3, N-(1-(5-(3-cyano-6-ethoxypyrazolo[1,5-a]pyridin-4-yl)pyridin-2-yl)-4-((4-(7-(4-(2-(2,6-dioxopiperidin-3-yl)-1-oxoisoindolin-5-yl)piperazin-1-yl)heptanoyl)piperazin-1-yl)methyl)piperidin-4-yl)-3-methylbutanamide], the Dmax was more than 90% and the DC50 was in the range of 2 to 10 nM. Take `CCOc1cc(-c2ccc(N3CCC(CN4CCN(CCC(=O)N5CCN(c6ccc7c(c6)C(=O)N(C6CCC(=O)NC6=O)C7)CC5)CC4)(NC(=O)c4cc(F)ccc4F)CC3)nc2)c2c(C#N)cnn2c1` (stereo not drawn) [Example 115, N-[1-(5-{3-cyano-6-ethoxypyrazolo[1,5-a]pyridin-4-yl}pyridin-2-yl)-4-{[4-(3-{4-[2-(2,6-dioxopiperidin-3-yl)-3-oxo-2,3-dihydro-1H-isoindol-5-yl]piperazin-1-yl}-3-oxopropyl)piperazin-1-yl]methyl}piperidin-4-yl]-2,5-difluorobenzamide]: the Dmax was 60 to 90% and the DC50 lay in the range of 10 to 100 nM. On to `CCOc1cc(-c2ccc(N3CCC(CN4CCN(C(=O)CCCCCN5CCC(c6ccc7c(N8CCC(=O)NC8=O)nn(C)c7c6)CC5)CC4)(NC(=O)c4cc(F)ccc4F)CC3)nc2)c2c(C#N)cnn2c1` [Example 42, N-(1-(5-(3-cyano-6-ethoxypyrazolo[1,5-a]pyridin-4-yl)pyridin-2-yl)-4-((4-(6-(4-(3-(2,4-dioxotetrahydropyrimidin-1(2H)-yl)-1-methyl-1H-indazol-6-yl)piperidin-1-yl)hexanoyl)piperazin-1-yl)methyl)piperidin-4-yl)-2,5-difluorobenzamide], for which the DC50 is less than 2 nM. Consider `CCOc1cc(-c2ccc(N3CCC(CN4CCN(C(=O)CCCCCCNc5ccc(C6CCC(=O)NC6=O)cc5)CC4)(NC(=O)c4cc(F)ccc4F)CC3)nc2)c2c(C#N)cnn2c1` (stereo not drawn) [Example 20, N-[1-(5-{3-cyano-6-ethoxypyrazolo[1,5-a]pyridin-4-yl}pyridin-2-yl)-4-{[4-(7-{[4-(2,6-dioxopiperidin-3-yl)phenyl]amino}heptanoyl)piperazin-1-yl]methyl}piperidin-4-yl]-2,5-difluorobenzamide], for which the Dmax was more than 90% and the DC50 was 2 to 10 nM.

Turning to `CCOc1cc(-c2ccc(N3CCC(CN4CCN(CC5CCN(C(=O)Cc6ccc7c(c6)CN(C6CCC(=O)NC6=O)C7=O)CC5)CC4)(NC(=O)c4cc(F)ccc4F)CC3)nc2)c2c(C#N)cnn2c1` (stereo not drawn) [Example 112, N-[1-(5-{3-cyano-6-ethoxypyrazolo[1,5-a]pyridin-4-yl}pyridin-2-yl)-4-({4-[(1-{2-[2-(2,6-dioxopiperidin-3-yl)-1-oxo-2,3-dihydro-1H-isoindol-5-yl]acetyl}piperidin-4-yl)methyl]piperazin-1-yl}methyl)piperidin-4-yl]-2,5-difluorobenzamide], the Dmax was more than 90% and the DC50 fell in the range of 2 to 10 nM. Turning to `CCOc1cc(-c2ccc(N3CCC(CN4CCN(C(=O)CCN5CCC(c6ccc7c(c6)C(=O)N(C6CCC(=O)NC6=O)C7)CC5)CC4)CC3)nc2)c2c(C#N)cnn2c1` (stereo not drawn) [Example 126, 4-[6-(4-{[4-(3-{4-[2-(2,6-dioxopiperidin-3-yl)-3-oxo-2,3-dihydro-1H-isoindol-5-yl]piperidin-1-yl}propanoyl)piperazin-1-yl]methyl}piperidin-1-yl)pyridin-3-yl]-6-ethoxypyrazolo[1,5-a]pyridine-3-carbonitrile], the Dmax was in the range of 60 to 90% and the DC50 was 100 to 2000 nM. Consider `CCOc1cc(-c2ccc(N3CCC(CN4CCN(CCOCCC(=O)N5CCN(c6ccc7c(c6)C(=O)N(C6CCC(=O)NC6=O)C7)CC5)CC4)(NC(=O)c4cc(F)ccc4F)CC3)nc2)c2c(C#N)cnn2c1` (stereo not drawn) [Example 103, N-[1-(5-{3-cyano-6-ethoxypyrazolo[1,5-a]pyridin-4-yl}pyridin-2-yl)-4-({4-[2-(3-{4-[2-(2,6-dioxopiperidin-3-yl)-3-oxo-2,3-dihydro-1H-isoindol-5-yl]piperazin-1-yl}-3-oxopropoxy)ethyl]piperazin-1-yl}methyl)piperidin-4-yl]-2,5-difluorobenzamide], for which the Dmax is more than 90% and the DC50 is 10 to 100 nM.

Regarding `CCOc1cc(-c2ccc(N3CCC(CN4CCN(CCOCCC(=O)N5CCC(c6ccc7c(c6)C(=O)N(C6CCC(=O)NC6=O)C7)CC5)CC4)(NC(=O)c4cc(F)ccc4F)CC3)nc2)c2c(C#N)cnn2c1` (stereo not drawn) [Example 101, N-[1-(5-{3-cyano-6-ethoxypyrazolo[1,5-a]pyridin-4-yl}pyridin-2-yl)-4-({4-[2-(3-{4-[2-(2,6-dioxopiperidin-3-yl)-3-oxo-2,3-dihydro-1H-isoindol-5-yl]piperidin-1-yl}-3-oxopropoxy)ethyl]piperazin-1-yl}methyl)piperidin-4-yl]-2,5-difluorobenzamide], the Dmax was more than 90% and the DC50 was 10 to 100 nM.

As to `CCOc1cc(-c2ccc(N3CCC(CN4CCN(C(=O)CCN5CCC(c6ccc7c(c6)C(=O)N(C6CCC(=O)NC6=O)C7)CC5)CC4)(C(=O)NC(C)C)CC3)nc2)c2c(C#N)cnn2c1` (stereo not drawn) [Example 76, 1-(5-(3-cyano-6-ethoxypyrazolo[1,5-a]pyridin-4-yl)pyridin-2-yl)-4-((4-(3-(4-(2-(2,6-dioxopiperidin-3-yl)-3-oxoisoindolin-5-yl)piperidin-1-yl)propanoyl)piperazin-1-yl)methyl)-N-isopropylpiperidine-4-carboxamide], the Dmax was 60 to 90% and the DC50 is 10 to 100 nM. On the same counts, the results for `CCOc1cc(-c2ccc(N3CCC(COCC(=O)NCCCCCCN4CCN(c5ccc6c(c5)CN(C5CCC(=O)NC5=O)C6=O)CC4)(NC(=O)c4cc(F)ccc4F)CC3)nc2)c2c(C#N)cnn2c1` (stereo not drawn) [Example 38, N-[1-[5-(3-cyano-6-ethoxy-pyrazolo[1,5-a]pyridin-4-yl)-2-pyridyl]-4-[[2-[6-[4-[2-(2,6-dioxo-3-piperidyl)-1-oxo-isoindolin-5-yl]piperazin-1-yl]hexylamino]-2-oxo-ethoxy]methyl]-4-piperidyl]-2,5-difluoro-benzamide] are more than 90% and less than 2 nM. Turning to `CCOc1cc(-c2ccc(N3CCC(CN4CCN(C(=O)CCCCN5CCN(c6ccc7c(c6)CN(C6CCC(=O)NC6=O)C7=O)CC5)CC4)(NC(=O)c4cc(F)ccc4F)CC3)nc2)c2c(C#N)cnn2c1` (stereo not drawn) [Example 5, N-(1-(5-(3-cyano-6-ethoxypyrazolo[1,5-a]pyridin-4-yl)pyridin-2-yl)-4-((4-(5-(4-(2-(2,6-dioxopiperidin-3-yl)-1-oxoisoindolin-5-yl)piperazin-1-yl)pentanoyl)piperazin-1-yl)methyl)piperidin-4-yl)-2,5-difluorobenzamide], the Dmax is more than 90% and the DC50 lay in the range of 2 to 10 nM. As for `CCOc1cc(-c2ccc(N3CCC(CN4CCN(C(=O)CCN5CCN(c6ccc7c(c6)CN(C6CCC(=O)NC6=O)C7=O)CC5)CC4)(C(=O)NC(C)C)CC3)nc2)c2c(C#N)cnn2c1` (stereo not drawn) [Example 77, 1-(5-(3-Cyano-6-ethoxypyrazolo[1,5-a]pyridin-4-yl)pyridin-2-yl)-4-((4-(3-(4-(2-(2,6-dioxopiperidin-3-yl)-1-oxoisoindolin-5-yl)piperazin-1-yl)propanoyl)piperazin-1-yl)methyl)-N-isopropylpiperidine-4-carboxamide], the Dmax fell in the range of 60 to 90% and the DC50 was less than 2 nM.

With `CCOc1cc(-c2ccc(N3CCC(COCc4cn(CCCN5CCN(c6ccc7c(c6)CN(C6CCC(=O)NC6=O)C7=O)CC5)nn4)(NC(=O)c4cc(F)ccc4F)CC3)nc2)c2c(C#N)cnn2c1` (stereo not drawn) [Example 50, N-(1-(5-(3-cyano-6-ethoxypyrazolo[1,5-a]pyridin-4-yl)pyridin-2-yl)-4-(((1-(3-(4-(2-(2,6-dioxopiperidin-3-yl)-1-oxoisoindolin-5-yl)piperazin-1-yl)propyl)-1H-1,2,3-triazol-4-yl)methoxy)methyl)piperidin-4-yl)-2,5-difluorobenzamide], the Dmax was in the range of 60 to 90% and the DC50 is 2 to 10 nM. Turning to `CCOc1cc(-c2ccc(N3CCC(Cc4ccccc4)(NC(=O)CC4CCN(C(=O)CCN5CCC(c6ccc7c(c6)C(=O)N(C6CCC(=O)NC6=O)C7)CC5)CC4)CC3)nc2)c2c(C#N)cnn2c1` (stereo not drawn) [Example 54, N-[4-benzyl-1-[5-(3-cyano-6-ethoxy-pyrazolo[1,5-a]pyridin-4-yl)-2-pyridyl]-4-piperidyl]-2-[1-[3-[4-[2-(2,6-dioxo-3-piperidyl)-3-oxo-isoindolin-5-yl]-1-piperidyl]propanoyl]-4-piperidyl]acetamide], the Dmax was in the range of 60 to 90% and the DC50 lay within 100 to 2000 nM.
